Details: mice, 75 mg/kg i.p., averaged data of three experiments, model fit
Description: Enzyme nanosensor solutions were prepared using concentrated O2NS nanosensors (25 μL, ˜10^13 particles) and DAO (50 μL, 1.75IU). As a control, O2NS injections were made with concentrated nanosensors (25 μL) diluted with 50 μL of PBS. […] Mice were weighed, anesthetized with isoflurane (2% isoflurane, 98% oxygen), and placed in the IVIS imager. Two intradermal 30 μL injections of nanosensors were made along the midline of the back. Enzyme nanosensor was injected posterior to O2NS. After injection the animals are imaged every 30 seconds for 30 minutes. […] The mice were imaged for an additional 45 minutes to 1 hour. All animals were sacrificed after the end of the experiment. Three separate experiments were performed with new mice and fresh batches of nanosensor solution.
For data analysis, a region of interest encompassing the injection area was selected and intensity was recorded. […] The difference in normalized signals between the enzymatic nanosensors and O2NS was calculated for each mouse. […] The average data was then fit to a single compartment open model: Equation (1)
Where I is the normalized fluorescent intensity difference, A is a scaling parameter, ka and ke are the absorption and elimination rate constants and tlag is the lag time. The parameters ka, ke, and tlag were fit using the method of residuals and A was fit using least squares minimization for plotting purposes.

SMILES: Cl.Cl.NCCc1c[nH]cn1 [histamine, histamine dihydrochloride]
- lag time: 4.8 min
